Laboratory results reported in PMC12118337, “Development of a Peptide Inhibitor Targeting the C‐SH2 Domain of the SHP2 Phosphatase” (Chembiochem, 2025).
Non-standard residues stand in square brackets, D forms with d. Residues, ends and D or L forms follow the SMILES beside them. *: point of attachment. 5FAM = O=C1OC2(c3ccc(O)cc3Oc3cc(O)ccc32)c2ccc(C(=O)*)cc21; F2Pmp = N[C@@H](Cc1ccc(C(F)(F)P(=O)(O)O)cc1)C(=O)O; pY = N[C@@H](Cc1ccc(OP(=O)(O)O)cc1)C(=O)O; X1 = O=C(O)C(C(=O)O)*

How the values were obtained:
SHP2 C‐SH2 domain = molecular target: T1, SHP2 C‐SH2 domain (Homo sapiens, UniProt Q06124); assay: Fluorescence polarization (FP) binding assay, SHP2 C-SH2 domain; conditions: 100 nM FAM-labelled peptide; for Kd: increasing C-SH2 protein, 50 mM HEPES pH 7.5, 150 mM NaCl, 1 mM EDTA, 0.05% Tween 20, FP at 10 min, three independent experiments in technical triplicates, read-out: K D ± SEM, C‐SH2 (FP)
T1 construct: SHP2 N-SH2 domain (1–105), C-SH2 domain (106–220), PTP domain (224–541) and; His6 (pETM22 vector) (N, cleaved yes); made in house; host or cells: E. coli BL21(DE3)
T1 sequence (Q06124 106-220): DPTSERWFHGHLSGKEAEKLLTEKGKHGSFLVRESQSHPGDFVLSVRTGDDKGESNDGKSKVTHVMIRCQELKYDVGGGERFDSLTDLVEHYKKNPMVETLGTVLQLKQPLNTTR
Procedure: (§1) buffer and stored in 5 mL binding buffer at 4°C. His-tagged 3C protease (0.5 mg; EMBL) was added to the pooled eluted fractions and dialysed using Spectra Por Dialysis Tubing (MWCO 6-8 kDa, 23 mm; Spectrum Labs) in 1 L of binding buffer at 4°C for 3 hours, then overnight in fresh buffer. A new column was prepared by loading 2 mL Ni-NTA Agarose (Invitrogen) as a 50% slurry in EtOH. The column was washed with 10 mL H2O to remove the EtOH and equilibrated with 10 mL binding buffer. The protein/3C protease mixture was loaded onto the column and incubated for 1 hour at 4°C on a rocker. The flow through containing the protein was collected, the column was washed with 100 mL binding buffer and the 3C protease was eluted with 5 mL elution buffer. Protein purification was monitored by SDS-PAGE using NuPAGE 4-12% Bis-Tris Protein Gels (Invitrogen) run in MOPS buffer (50 mM MOPS, 50 mM Tris-HCl pH 7.7, 1 mM EDTA, 0.1% SDS) followed by Coomassie staining using Coomassie Brilliant Blue (Roth). The purified protein was dialysed into the final storage buffer (50 mM HEPES pH 7.5, 150 mM NaCl, 2 mM DTT, 20% glycerol). Aliquots were prepared and stored at -80°C until required. […]
(§2) 4. Fluorescence polarization
(§3) Fluorescence polarization (FP) was used to measure the binding of FAM-labelled peptides to the SHP2 C-SH2, SHP2 N-SH2, SHP2 PTP, CSK SH2 or Src SH2 domains. Each peptide was added to increasing concentrations of SHP2 C-SH2, SHP2 N-SH2, SHP2 PTP, CSK SH2 or Src SH2 protein in FP buffer (50 mM HEPES pH 7.5, 150 mM NaCl, 1 mM EDTA, 0.05% Tween 20) to give a final peptide […]
(§4) concentration of 100 nM in a final volume of 200 µL. For baseline subtraction, each peptide was added to FP buffer, instead of protein, with a final peptide concentration of 100 nM in a final volume of 200 µL. Samples were mixed gently then 3 x 60 µL of each sample was transferred into triplicate wells in a 96-well plate (OptiPlate-96 F Black; PerkinElmer). The FP was immediately measured on a Synergy H1 Microplate Reader (BioTek) with the excitation and emission monitored at 485 nm and 528 nm, respectively, over 30 minutes. FP values were automatically calculated by the Gen5 3.03 (BioTek) software associated with the microplate reader. Data were analysed in Excel 2016 by subtracting baseline values from FP values at 10 minutes. Data were then further analysed in GraphPad Prism 6 by plotting the baseline subtracted FP values against the protein concentration and fitting the data to a variable slope model of non-linear regression to obtain the KD values. Data are from three independent experiments, each performed in technical triplicates.
(§5) 5. Isothermal titration calorimetry […]
(§6) Analysis Software (Malvern Panalytical). For the data analysis, a 1:1 binding stoichiometry between the Ac-ITSM(pTyr) and SH2 domain was assumed. ITC measurements were performed once.

SHP2 N‐SH2 domain = molecular target: T2, SHP2 N‐SH2 domain (Homo sapiens, UniProt Q06124); assay: Fluorescence polarization (FP) binding assay, SHP2 N-SH2 domain; conditions: 100 nM FAM-labelled peptide; for Kd: increasing N-SH2 protein, 50 mM HEPES pH 7.5, 150 mM NaCl, 1 mM EDTA, 0.05% Tween 20, FP at 10 min, three independent experiments in technical triplicates, read-out: K D ± SEM, N‐SH2 (FP)
T2 construct: SHP2 N-SH2 domain (1–105), C-SH2 domain (106–220), PTP domain (224–541) and; His6 (pETM22 vector) (N, cleaved yes); made in house; host or cells: E. coli BL21(DE3)
T2 sequence (Q06124 1-105): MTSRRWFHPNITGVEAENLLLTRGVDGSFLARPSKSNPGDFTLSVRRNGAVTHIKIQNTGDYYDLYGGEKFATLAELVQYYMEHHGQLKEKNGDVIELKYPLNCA
Procedure: as §1, §2, §3, §4, §5, §6

Compound | Kd (SHP2 C‐SH2 domain) [nM] | Kd (SHP2 N‐SH2 domain) [nM] | binding to the C‐SH2 domain, in words (SHP2 C‐SH2 domain) | binding to the N‐SH2 domain, in words (SHP2 N‐SH2 domain)
CC[C@H](C)[C@H](NC(=O)[C@@H](NC(=O)[C@H](C)NC(=O)[C@H](Cc1ccc(OP(=O)(O)O)cc1)NC(=O)[C@H](CCC(=O)O)NC(=O)[C@@H](NC(=O)[C@H](CCC(N)=O)NC(=O)c1ccc2c(c1)C(=O)OC21c2ccc(O)cc2Oc2cc(O)ccc21)[C@@H](C)O)[C@@H](C)O)C(=O)N[C@@H](CCCCN)C(=O)N[C@@H](Cc1c[nH]cn1)C(=O)N1CCC[C@H]1C(N)=O [peptide 18] (5FAM-QTE[pY]ATIKHP-NH2) | 88.2 ± 4.29 | > 3000 |  | 
CC[C@H](C)[C@H](NC(=O)[C@@H](NC(=O)[C@H](C)NC(=O)[C@H](Cc1ccc(OP(=O)(O)O)cc1)NC(=O)[C@H](CCC(=O)O)NC(=O)[C@@H](NC(=O)[C@H](CCC(N)=O)NC(=O)[C@H](CCC(=O)O)NC(=O)c1ccc2c(c1)C(=O)OC21c2ccc(O)cc2Oc2cc(O)ccc21)[C@@H](C)O)[C@@H](C)O)C(=O)N[C@@H](C)C(=O)N[C@@H](Cc1ccccc1)C(=O)N1CCC[C@H]1C(N)=O [compound 7] (5FAM-EQTE[pY]ATIAFP-NH2) | > 2000 | 1080 ± 84 |  | 
CC[C@H](C)[C@H](NC(=O)[C@@H](NC(=O)[C@H](C)NC(=O)[C@H](Cc1ccc(C(F)(F)P(=O)(O)O)cc1)NC(=O)[C@H](CCC(=O)O)NC(=O)[C@@H](NC(=O)[C@H](CCC(N)=O)NC(=O)[C@H](CCC(=O)O)NC(=O)c1ccc2c(c1)C(=O)OC21c2ccc(O)cc2Oc2cc(O)ccc21)[C@@H](C)O)[C@@H](C)O)C(=O)N[C@H](C(=O)N[C@@H](Cc1ccccc1)C(=O)N1CCC[C@H]1C(N)=O)C(C)C [FAM‐ITSM(F2Pmp)] (5FAM-EQTE[F2Pmp]ATIVFP-NH2) | > 2000 | 1390 ± 63 | marked decrease in binding affinity | slightly better binding than FAM‐ITSM(L‐OMT)
CC[C@H](C)[C@H](NC(=O)[C@@H](NC(=O)[C@H](C)NC(=O)[C@H](Cc1ccc(OP(=O)(O)O)cc1)NC(=O)[C@H](CCC(=O)O)NC(=O)[C@H](C)NC(=O)[C@H](CCC(N)=O)NC(=O)[C@H](CCC(=O)O)NC(=O)c1ccc2c(c1)C(=O)OC21c2ccc(O)cc2Oc2cc(O)ccc21)[C@@H](C)O)C(=O)N[C@H](C(=O)N[C@@H](Cc1ccccc1)C(=O)N1CCC[C@H]1C(N)=O)C(C)C [peptide 3] (5FAM-EQAE[pY]ATIVFP-NH2) | 135 ± 4.6 | 428 ± 25.1 |  | 
CC(C)[C@H](NC(=O)[C@@H](NC(=O)[C@H](C)NC(=O)[C@H](Cc1ccc(OP(=O)(O)O)cc1)NC(=O)[C@H](CCC(=O)O)NC(=O)[C@@H](NC(=O)[C@H](CCC(N)=O)NC(=O)[C@H](CCC(=O)O)NC(=O)c1ccc2c(c1)C(=O)OC21c2ccc(O)cc2Oc2cc(O)ccc21)[C@@H](C)O)[C@@H](C)O)C(=O)N[C@@H](CCCCN)C(=O)N[C@@H](Cc1ccccc1)C(=O)N1CCC[C@H]1C(N)=O [compound 10] (5FAM-EQTE[pY]ATVKFP-NH2) | 209 ± 14.4 | > 3000 |  | 
CC[C@H](C)[C@H](NC(=O)[C@@H](NC(=O)[C@H](C)NC(=O)[C@H](Cc1ccc(OP(=O)(O)O)cc1)NC(=O)[C@H](CCC(=O)O)NC(=O)[C@@H](NC(=O)[C@H](CCC(N)=O)NC(=O)c1ccc2c(c1)C(=O)OC21c2ccc(O)cc2Oc2cc(O)ccc21)[C@@H](C)O)C(C)C)C(=O)N[C@@H](CCCCN)C(=O)N[C@@H](Cc1ccccc1)C(=O)N1CCC[C@H]1C(N)=O [compound 14] (5FAM-QTE[pY]AVIKFP-NH2) | 80.2 ± 4.32 | 840 ± 228 |  | 
CC[C@H](C)[C@H](NC(=O)[C@@H](NC(=O)[C@H](C)NC(=O)[C@H](Cc1ccc(OP(=O)(O)O)cc1)NC(=O)[C@H](CCC(=O)O)NC(=O)[C@@H](NC(=O)[C@H](CCC(N)=O)NC(=O)[C@H](CCC(=O)O)NC(=O)c1ccc2c(c1)C(=O)OC21c2ccc(O)cc2Oc2cc(O)ccc21)[C@@H](C)O)[C@@H](C)O)C(=O)N[C@H](C(=O)N[C@@H](Cc1ccccc1)C(=O)N1CCC[C@H]1C(N)=O)C(C)C [FAM‐ITSM(pTyr), reference compound] (5FAM-EQTE[pY]ATIVFP-NH2) | 48.9 | 164 ± 19.5 |  | 
CC[C@H](C)[C@H](NC(=O)[C@@H](NC(=O)[C@H](C)NC(=O)[C@H](Cc1ccc(OP(=O)(O)O)cc1)NC(=O)[C@H](CCC(=O)O)NC(=O)[C@@H](NC(=O)[C@H](CCC(N)=O)NC(=O)c1ccc2c(c1)C(=O)OC21c2ccc(O)cc2Oc2cc(O)ccc21)[C@@H](C)O)[C@@H](C)O)C(=O)N[C@@H](CCCCN)C(=O)N[C@@H](Cc1ccc(O)cc1)C(=O)N1CCC[C@H]1C(N)=O [compound 17] (5FAM-QTE[pY]ATIKYP-NH2) | 116 ± 7.7 | > 3000 |  | 
CC[C@H](C)[C@H](NC(=O)[C@@H](NC(=O)[C@H](C)NC(=O)[C@H](Cc1ccc(OP(=O)(O)O)cc1)NC(=O)[C@H](CCC(=O)O)NC(=O)[C@@H](NC(=O)[C@H](CCC(N)=O)NC(=O)c1ccc2c(c1)C(=O)OC21c2ccc(O)cc2Oc2cc(O)ccc21)[C@@H](C)O)[C@@H](C)O)C(=O)N[C@H](C(=O)N[C@@H](Cc1ccccc1)C(=O)N1CCC[C@H]1C(N)=O)C(C)C [compound 11] (5FAM-QTE[pY]ATIVFP-NH2) | 40.8 ± 0.96 | 204 ± 10.4 |  | 
CC[C@H](C)[C@H](NC(=O)[C@@H](NC(=O)[C@H](C)NC(=O)[C@H](Cc1ccc(OP(=O)(O)O)cc1)NC(=O)[C@H](CCC(=O)O)NC(=O)[C@@H](NC(=O)[C@H](CCC(N)=O)NC(=O)c1ccc2c(c1)C(=O)OC21c2ccc(O)cc2Oc2cc(O)ccc21)[C@@H](C)O)[C@@H](C)O)C(=O)N[C@@H](CCCCN)C(=O)N[C@@H](Cc1c[nH]c2ccccc12)C(=O)N1CCC[C@H]1C(N)=O [compound 13] (5FAM-QTE[pY]ATIKWP-NH2) | 46.8 ± 1.29 | 368 ± 40 |  | 
CC[C@H](C)[C@H](NC(=O)[C@@H](NC(=O)[C@H](C)NC(=O)[C@H](Cc1ccc(OC(C(=O)O)C(=O)O)cc1)NC(=O)[C@H](CCC(=O)O)NC(=O)[C@@H](NC(=O)[C@H](CCC(N)=O)NC(=O)[C@H](CCC(=O)O)NC(=O)c1ccc2c(c1)C(=O)OC21c2ccc(O)cc2Oc2cc(O)ccc21)[C@@H](C)O)[C@@H](C)O)C(=O)N[C@H](C(=O)N[C@@H](Cc1ccccc1)C(=O)N1CCC[C@H]1C(N)=O)C(C)C [FAM‐ITSM(L‐OMT)] (5FAM-EQTEY(X1)ATIVFP-NH2) | 257 ± 8.3 | 1710 ± 105 | retained binding | 
